Assay results reported in patent publication US8735584B2 (Merck Patent GmbH, priority 2008, dated 2014).

Experiments:
[1] = system: leukemia, colon and pancreatic tumors; conditions: variety of in vivo xenograft models; well-tolerated doses; cited from earlier work
[2] = system: tumor cells of various origins / normal human cells; conditions: in vitro; cited from earlier work
human tumor xenograft = human tumor xenograft model; several intermittent dosing schedules; cited from earlier work
ABL = target: T1, ABL (Homo sapiens, UniProt P00519); test: Desktop Profiler kinase panel, ABL; format: biochemical; conditions: for inhibition at 10 µM: 10 micromolar concentration of the compound, read-out: Percent Inhibition ABL
T1 construct: purchased Caliper Life Sciences
Protocol: (§1) The Aurora assays described here are performed on two Caliper Life Sciences systems: the LC3000 and the Desktop Profiler. These provide data on enzyme activity via measurement of the relative amounts of phosphorylated or unphosphorylated fluorescently labelled substrate peptide at the end of an enzymatic reaction. These different states of peptide are resolved by applying a potential difference across the sample. The presence of the charged phosphate group on the product (as opposed to the substrate) causes a different peptide mobility between the two peptides. This is visualized by excitation of the fluorescent label on the substrate and product peptides and represented as peaks within the analysis software.
(§2) The Desktop Profiler utilizes the same principle as the LC3000 for calculating percentage conversion of a substrate to product. Caliper Life Sciences provides proprietary flash frozen pre-made 384 well plates containing selected kinases. Each column in the 384 well plate contains a particular selected kinase. A second plate, the ‘substrate plate’ contains a mix of fluorescently labeled peptide substrate and ATP. These are arranged in columns so that transfer for substrate plate to enzyme plate provides the correct enzyme with the correct substrate/ATP concentration. Compounds are added to a thawed enzyme plate in the desired format, in single concentrations. Reactions are initiated by transfer of the substrate/ATP mix from the substrate plate. The enzyme plate is incubated for 90 mins at 25 C. The reaction is stopped by addition of 70 ul of Stop Buffer (100 mM HEPES pH 7.5, 0.015% Brij-35, 10 mM EDTA (Sigma, E7889)).
(§3) Reading of the plate in the Profiler is identical to the LC3000, and the ratio between substrate and product peaks provides the activity of the enzyme in that well. This is best represented by a plate heat map which colors each well by percent inhibition as compared to positive and negative controls (no inhibitors and no ATP respectively).
(§4) In the following Tables 3a-4-b, which show the results of the desktop profiler measurements, “+” means 50-70% inhibition, “++” means 70-90% inhibition, and “+++” means >90% inhibition. The enzymes tested for profiling were ABL, AKT1, AKT2, AurA, CHK1, CHK2, CK1d, Erk1, Erk2, FYN, GSK3b, INSR, LCK, LYN, MAPKAPK2, MET, MSK1, p38a, PKA, PKCz, PKD2, PRAK, RSK1 and SRC.

AKT2 = target: T2, AKT2 (Homo sapiens, UniProt P31751); test: Desktop Profiler kinase panel, AKT2; format: biochemical; conditions: 10 micromolar concentration of the compound; read-out: Percent Inhibition AKT2
T2 construct: purchased Caliper Life Sciences
Protocol: as §1, §2, §3, §4

AurA = target: T3, AurA (Homo sapiens, UniProt O14965); test: Desktop Profiler kinase panel, AurA; format: biochemical; conditions: 10 micromolar concentration of the compound; read-out: Percent Inhibition AurA
T3 construct: purchased Caliper Life Sciences
T3 sequence (O14965 1-403): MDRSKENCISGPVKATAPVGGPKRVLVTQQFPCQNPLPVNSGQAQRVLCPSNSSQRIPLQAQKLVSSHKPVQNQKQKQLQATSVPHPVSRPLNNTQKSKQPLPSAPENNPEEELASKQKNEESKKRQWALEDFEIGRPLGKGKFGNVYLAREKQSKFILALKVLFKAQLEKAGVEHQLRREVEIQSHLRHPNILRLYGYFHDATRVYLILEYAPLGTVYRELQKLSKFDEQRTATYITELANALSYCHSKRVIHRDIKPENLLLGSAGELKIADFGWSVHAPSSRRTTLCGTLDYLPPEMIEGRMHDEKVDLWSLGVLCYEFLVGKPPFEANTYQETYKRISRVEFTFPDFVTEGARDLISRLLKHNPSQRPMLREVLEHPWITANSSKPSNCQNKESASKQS
Protocol: as §1, §2, §3, §4

CHK2 = target: T4, CHK2 (Homo sapiens, UniProt O96017); test: Desktop Profiler kinase panel, CHK2; format: biochemical; conditions: 10 micromolar concentration of the compound; read-out: Percent Inhibition CHK2
T4 construct: purchased Caliper Life Sciences
Protocol: as §1, §2, §3, §4

CK1d = target: T5, CK1d (Homo sapiens, UniProt P48730); test: Desktop Profiler kinase panel, CK1d; format: biochemical
T5 construct: purchased Caliper Life Sciences
Protocol: as §1, §2, §3, §4

FYN = target: T6, FYN (Homo sapiens, UniProt P06241); test: Desktop Profiler kinase panel, FYN; format: biochemical; conditions: for inhibition at 10 µM: 10 micromolar concentration of the compound, read-out: Percent Inhibition FYN
T6 construct: purchased Caliper Life Sciences
Protocol: as §1, §2, §3, §4

GSK3b = target: T7, GSK3b (Homo sapiens, UniProt P49841); test: Desktop Profiler kinase panel, GSK3b; format: biochemical; conditions: 10 micromolar concentration of the compound; read-out: Percent Inhibition GSK3b
T7 construct: purchased Caliper Life Sciences
Protocol: as §1, §2, §3, §4

LYN = target: T8, LYN (Homo sapiens, UniProt P07948); test: Desktop Profiler kinase panel, LYN; format: biochemical; conditions: for inhibition at 10 µM: 10 micromolar concentration of the compound, read-out: Percent Inhibition LYN
T8 construct: purchased Caliper Life Sciences
Protocol: as §1, §2, §3, §4

p38a = target: T9, p38a (Homo sapiens, UniProt Q16539); test: Desktop Profiler kinase panel, p38a; format: biochemical; conditions: 1 micromolar concentration of the compound
T9 construct: purchased Caliper Life Sciences
Protocol: as §1
The Desktop Profiler utilizes the same principle as the LC3000 for calculating percentage conversion of a substrate to product. Caliper Life Sciences provides proprietary flash frozen pre-made 384 well plates containing selected kinases. Each column in the 384 well plate contains a particular selected kinase. A second plate, the ‘substrate plate’ contains a mix of fluorescently labeled peptide substrate and ATP. […]
Reading of the plate in the Profiler is identical to the LC3000, and the ratio between substrate and product peaks provides the activity of the enzyme in that well. […]

PKD2 = target: T10, PKD2 (Homo sapiens, UniProt Q9BZL6); test: Desktop Profiler kinase panel, PKD2; format: biochemical; conditions: 10 micromolar concentration of the compound; read-out: Percent Inhibition PKD2
T10 construct: purchased Caliper Life Sciences
T10 sequence (Q9BZL6 1-878): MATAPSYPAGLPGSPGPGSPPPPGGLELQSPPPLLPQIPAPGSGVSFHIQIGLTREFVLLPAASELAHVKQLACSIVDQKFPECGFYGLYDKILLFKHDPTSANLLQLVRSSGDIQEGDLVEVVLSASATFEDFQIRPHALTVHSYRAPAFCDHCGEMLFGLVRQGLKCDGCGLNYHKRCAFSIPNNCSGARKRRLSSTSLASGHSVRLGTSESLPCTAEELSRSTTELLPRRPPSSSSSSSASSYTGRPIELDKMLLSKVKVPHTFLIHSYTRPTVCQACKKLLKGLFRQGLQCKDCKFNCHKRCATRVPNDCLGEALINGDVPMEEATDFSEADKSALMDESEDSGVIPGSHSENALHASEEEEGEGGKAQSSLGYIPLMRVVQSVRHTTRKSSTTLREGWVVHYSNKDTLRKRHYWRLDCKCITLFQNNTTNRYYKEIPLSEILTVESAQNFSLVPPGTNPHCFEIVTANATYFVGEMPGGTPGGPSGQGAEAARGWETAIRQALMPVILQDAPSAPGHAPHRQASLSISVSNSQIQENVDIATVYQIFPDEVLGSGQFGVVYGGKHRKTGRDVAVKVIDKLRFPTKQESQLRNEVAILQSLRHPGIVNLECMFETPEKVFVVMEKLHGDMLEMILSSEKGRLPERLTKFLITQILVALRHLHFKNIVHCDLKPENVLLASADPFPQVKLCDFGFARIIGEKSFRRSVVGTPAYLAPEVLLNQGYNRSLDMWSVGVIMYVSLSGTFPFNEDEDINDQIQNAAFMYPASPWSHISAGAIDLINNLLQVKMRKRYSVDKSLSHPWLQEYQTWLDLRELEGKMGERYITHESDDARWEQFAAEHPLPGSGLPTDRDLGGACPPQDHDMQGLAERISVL
Protocol: as §1, §2, §3, §4

SRC = target: T11, SRC (Homo sapiens, UniProt P12931); test: Desktop Profiler kinase panel, SRC; format: biochemical; conditions: for inhibition at 10 µM: 10 micromolar concentration of the compound, read-out: Percent Inhibition SRC
T11 construct: purchased Caliper Life Sciences
Protocol: as §1, §2, §3, §4

RSK1 = target: T12, RSK1 (Homo sapiens, UniProt Q15418); test: Desktop Profiler kinase panel, RSK1; format: biochemical; conditions: 10 micromolar concentration of the compound; read-out: Percent Inhibition RSK1
T12 construct: purchased Caliper Life Sciences
Protocol: as §1, §2, §3, §4

[3] = 1 micromolar concentration of the compound

T1 sequence (P00519 whole entry, species assumed): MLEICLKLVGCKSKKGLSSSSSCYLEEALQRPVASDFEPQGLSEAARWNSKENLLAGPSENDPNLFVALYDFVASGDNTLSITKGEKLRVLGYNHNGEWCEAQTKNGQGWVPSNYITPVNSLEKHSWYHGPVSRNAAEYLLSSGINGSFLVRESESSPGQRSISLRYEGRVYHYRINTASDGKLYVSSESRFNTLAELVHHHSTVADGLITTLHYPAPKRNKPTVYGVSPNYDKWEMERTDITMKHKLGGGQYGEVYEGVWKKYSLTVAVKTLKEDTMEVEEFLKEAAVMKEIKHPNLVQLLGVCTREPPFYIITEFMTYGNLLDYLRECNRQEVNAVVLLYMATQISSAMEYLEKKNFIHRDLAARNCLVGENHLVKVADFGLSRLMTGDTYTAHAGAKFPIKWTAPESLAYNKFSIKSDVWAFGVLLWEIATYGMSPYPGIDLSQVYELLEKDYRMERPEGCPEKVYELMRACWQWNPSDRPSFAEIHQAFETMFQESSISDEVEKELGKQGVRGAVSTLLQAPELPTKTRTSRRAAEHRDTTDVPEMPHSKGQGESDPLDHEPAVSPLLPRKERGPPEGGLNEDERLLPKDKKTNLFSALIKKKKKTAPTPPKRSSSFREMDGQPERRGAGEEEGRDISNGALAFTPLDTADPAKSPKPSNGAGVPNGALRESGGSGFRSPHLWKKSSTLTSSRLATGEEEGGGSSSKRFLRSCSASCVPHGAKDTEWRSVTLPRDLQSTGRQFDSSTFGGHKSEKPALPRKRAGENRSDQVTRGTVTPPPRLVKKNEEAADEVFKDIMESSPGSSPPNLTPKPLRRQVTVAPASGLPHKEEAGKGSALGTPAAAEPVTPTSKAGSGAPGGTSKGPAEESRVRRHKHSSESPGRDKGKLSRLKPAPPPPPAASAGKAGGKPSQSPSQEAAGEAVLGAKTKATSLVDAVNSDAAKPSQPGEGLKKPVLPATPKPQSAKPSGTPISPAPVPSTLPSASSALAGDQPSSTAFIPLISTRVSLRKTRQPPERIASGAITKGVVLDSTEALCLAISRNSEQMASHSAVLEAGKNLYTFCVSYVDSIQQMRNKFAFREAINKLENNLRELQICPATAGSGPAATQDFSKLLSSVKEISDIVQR
T8 sequence (P07948 whole entry, species assumed): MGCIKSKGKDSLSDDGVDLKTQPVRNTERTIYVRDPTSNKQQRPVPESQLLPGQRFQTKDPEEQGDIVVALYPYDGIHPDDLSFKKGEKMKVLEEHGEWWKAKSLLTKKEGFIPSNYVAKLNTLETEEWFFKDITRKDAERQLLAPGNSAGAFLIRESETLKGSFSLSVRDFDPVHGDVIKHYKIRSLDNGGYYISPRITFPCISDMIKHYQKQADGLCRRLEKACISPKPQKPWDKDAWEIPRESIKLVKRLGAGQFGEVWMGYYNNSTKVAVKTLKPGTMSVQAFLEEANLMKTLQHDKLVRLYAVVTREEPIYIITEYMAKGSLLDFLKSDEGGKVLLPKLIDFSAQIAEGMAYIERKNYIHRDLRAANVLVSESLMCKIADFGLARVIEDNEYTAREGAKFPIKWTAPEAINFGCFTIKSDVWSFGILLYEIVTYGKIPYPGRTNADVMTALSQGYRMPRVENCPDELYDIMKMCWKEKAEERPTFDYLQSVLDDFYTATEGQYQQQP
T6 sequence (P06241 whole entry, species assumed): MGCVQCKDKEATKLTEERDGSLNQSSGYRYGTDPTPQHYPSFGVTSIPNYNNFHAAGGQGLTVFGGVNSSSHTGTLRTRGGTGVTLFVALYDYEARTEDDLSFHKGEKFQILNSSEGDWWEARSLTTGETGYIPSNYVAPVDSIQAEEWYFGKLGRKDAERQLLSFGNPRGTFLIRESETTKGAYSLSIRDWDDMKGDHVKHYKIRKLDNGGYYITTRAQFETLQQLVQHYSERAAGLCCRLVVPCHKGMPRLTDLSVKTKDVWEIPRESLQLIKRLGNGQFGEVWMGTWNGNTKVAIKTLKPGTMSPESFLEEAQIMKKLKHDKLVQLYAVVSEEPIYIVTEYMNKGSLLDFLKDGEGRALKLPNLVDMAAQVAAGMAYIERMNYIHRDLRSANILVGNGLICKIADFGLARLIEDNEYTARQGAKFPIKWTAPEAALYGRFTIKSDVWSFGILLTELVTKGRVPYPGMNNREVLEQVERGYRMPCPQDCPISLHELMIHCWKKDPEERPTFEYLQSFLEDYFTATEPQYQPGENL
T11 sequence (P12931 whole entry, species assumed): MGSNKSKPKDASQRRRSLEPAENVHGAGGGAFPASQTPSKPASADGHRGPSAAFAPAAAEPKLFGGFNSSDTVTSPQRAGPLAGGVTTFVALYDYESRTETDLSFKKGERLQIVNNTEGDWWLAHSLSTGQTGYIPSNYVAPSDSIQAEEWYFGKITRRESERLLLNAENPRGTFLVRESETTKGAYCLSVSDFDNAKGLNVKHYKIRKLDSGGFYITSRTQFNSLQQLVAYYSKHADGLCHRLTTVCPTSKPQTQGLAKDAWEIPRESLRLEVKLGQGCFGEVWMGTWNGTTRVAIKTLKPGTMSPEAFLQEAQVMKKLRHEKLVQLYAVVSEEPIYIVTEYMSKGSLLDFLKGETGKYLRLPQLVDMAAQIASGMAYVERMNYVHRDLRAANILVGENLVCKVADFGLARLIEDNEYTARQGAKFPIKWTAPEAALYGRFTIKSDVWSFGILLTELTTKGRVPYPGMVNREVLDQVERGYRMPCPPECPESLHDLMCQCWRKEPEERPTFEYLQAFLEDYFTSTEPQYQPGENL
T5 sequence (P48730 whole entry): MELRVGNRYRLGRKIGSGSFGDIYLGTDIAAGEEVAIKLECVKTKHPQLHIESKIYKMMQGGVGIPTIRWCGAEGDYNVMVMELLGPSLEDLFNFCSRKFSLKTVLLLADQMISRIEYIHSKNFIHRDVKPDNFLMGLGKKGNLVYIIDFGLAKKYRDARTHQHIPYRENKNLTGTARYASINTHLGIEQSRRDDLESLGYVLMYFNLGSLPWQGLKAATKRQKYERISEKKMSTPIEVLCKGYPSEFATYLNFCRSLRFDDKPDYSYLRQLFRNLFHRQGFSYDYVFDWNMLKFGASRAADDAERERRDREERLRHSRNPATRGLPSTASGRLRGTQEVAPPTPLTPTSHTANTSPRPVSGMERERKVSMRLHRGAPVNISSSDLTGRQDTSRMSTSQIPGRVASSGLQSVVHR
T7 sequence (P49841 whole entry, species assumed): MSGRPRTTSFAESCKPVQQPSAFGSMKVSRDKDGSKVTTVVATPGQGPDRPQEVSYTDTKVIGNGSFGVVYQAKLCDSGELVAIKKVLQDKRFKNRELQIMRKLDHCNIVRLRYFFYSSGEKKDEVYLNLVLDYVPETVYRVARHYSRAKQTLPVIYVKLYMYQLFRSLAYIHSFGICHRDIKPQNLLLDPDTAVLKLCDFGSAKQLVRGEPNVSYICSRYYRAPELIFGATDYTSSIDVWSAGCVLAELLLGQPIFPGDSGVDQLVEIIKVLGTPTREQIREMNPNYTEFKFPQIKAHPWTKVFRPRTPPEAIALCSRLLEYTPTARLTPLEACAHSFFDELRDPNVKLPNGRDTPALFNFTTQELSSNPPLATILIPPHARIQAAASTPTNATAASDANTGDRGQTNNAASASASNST
T12 sequence (Q15418 whole entry, species assumed): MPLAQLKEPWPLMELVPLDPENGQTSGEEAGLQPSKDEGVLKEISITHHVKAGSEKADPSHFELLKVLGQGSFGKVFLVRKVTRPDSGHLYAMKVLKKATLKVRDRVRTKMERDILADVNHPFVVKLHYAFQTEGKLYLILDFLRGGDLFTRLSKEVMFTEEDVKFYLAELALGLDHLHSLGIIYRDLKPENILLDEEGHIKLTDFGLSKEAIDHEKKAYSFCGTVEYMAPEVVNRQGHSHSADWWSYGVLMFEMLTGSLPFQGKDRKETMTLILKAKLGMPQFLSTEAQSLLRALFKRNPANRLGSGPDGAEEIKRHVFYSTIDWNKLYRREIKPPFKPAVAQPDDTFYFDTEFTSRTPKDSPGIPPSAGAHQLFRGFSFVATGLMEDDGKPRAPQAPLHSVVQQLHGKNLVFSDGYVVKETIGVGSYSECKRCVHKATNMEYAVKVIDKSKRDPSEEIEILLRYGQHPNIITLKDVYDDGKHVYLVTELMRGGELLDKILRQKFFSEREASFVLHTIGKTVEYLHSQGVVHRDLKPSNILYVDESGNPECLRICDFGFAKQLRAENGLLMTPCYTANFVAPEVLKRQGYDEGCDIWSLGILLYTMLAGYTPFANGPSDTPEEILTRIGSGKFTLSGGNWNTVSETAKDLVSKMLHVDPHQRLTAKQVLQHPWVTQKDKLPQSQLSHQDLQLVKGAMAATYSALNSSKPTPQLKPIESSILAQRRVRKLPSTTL
T2 sequence (P31751 whole entry, species assumed): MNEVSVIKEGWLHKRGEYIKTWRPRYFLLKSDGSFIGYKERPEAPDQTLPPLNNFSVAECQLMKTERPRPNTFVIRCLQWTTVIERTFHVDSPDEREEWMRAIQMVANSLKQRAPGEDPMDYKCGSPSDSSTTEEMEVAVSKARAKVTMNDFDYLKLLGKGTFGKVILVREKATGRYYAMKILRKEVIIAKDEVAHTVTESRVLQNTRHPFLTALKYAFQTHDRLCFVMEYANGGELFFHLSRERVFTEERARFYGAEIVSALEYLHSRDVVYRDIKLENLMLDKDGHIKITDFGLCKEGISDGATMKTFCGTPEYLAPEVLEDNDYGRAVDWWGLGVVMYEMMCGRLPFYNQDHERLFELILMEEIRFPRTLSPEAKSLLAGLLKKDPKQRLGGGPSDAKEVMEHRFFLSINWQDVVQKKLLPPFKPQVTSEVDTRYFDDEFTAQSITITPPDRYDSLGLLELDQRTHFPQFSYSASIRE

SMILES	inhibition at 10 µM (ABL) [%]	inhibition at 10 µM (AurA) [%]	inhibition at 10 µM (FYN) [%]	inhibition at 10 µM (LYN) [%]	inhibition at 10 µM (PKD2) [%]	inhibition at 10 µM (SRC) [%]	further results
Cc1cc(Nc2cc(N3CCN(C)CC3)nc(Sc3ccc(NC(=O)C4CC4)cc3)n2)n[nH]1 [VX-680]							inhibition of tumor growth [1]: profound inhibition of tumor growth
Nc1nc(Nc2ccc(S(N)(=O)=O)cc2)nn1C(=O)c1c(F)cccc1F [JNJ-7706621]							less effective at inhibiting normal human cell growth than tumor cell proliferation [2]: about 10 fold; antitumor activity (human tumor xenograft): significant antitumor activity
O=c1[nH]c2nccc(NCc3ccccc3)c2c2ccccc12 [Example 96, 1-Benzylamino-5H-benzo[c][1,8]naphthyridin-6-one]	70 to 90	70 to 90	70 to 90	70 to 90	50 to 70	50 to 70	inhibition at 1 µM (ABL; [3]): 70 to 90%; inhibition at 10 µM (AKT2): 50 to 70%; inhibition at 10 µM (CHK2): 50 to 70%; inhibition at 1 µM (CK1d; [3]): 50 to 70%; inhibition at 10 µM (CK1d; 10 micromolar concentration of the compound, read-out: Percent Inhibition CK1d): 50 to 70%; inhibition at 1 µM (FYN; [3]): 70 to 90%; inhibition at 10 µM (GSK3b): 50 to 70%; inhibition at 1 µM (LYN; [3]): 70 to 90%; inhibition at 1 µM (p38a): 50 to 70%; inhibition at 1 µM (SRC; [3]): 50 to 70%
Clc1nc2nccc(NCc3ccccc3)c2c2ccccc12 [Example 103, Benzyl-(6-chloro-benzo[c][1,8]naphthyridin-1-yl)-amine]	70 to 90		70 to 90	70 to 90		70 to 90	inhibition at 10 µM (RSK1): 50 to 70%
COc1cccc(CNc2ccnc3[nH]c(=O)c4ccccc4c23)c1 [Example 98, 1-(3-Methoxy-benzylamino)-5H-benzo[c][1,8]naphthyridin-6-one]		50 to 70	50 to 70	50 to 70	50 to 70		
